Laboratory results published in patent EP1175467B1, “STABILIZED ADHESIVE COMPOSITIONS CONTAINING HIGHLY SOLUBLE, RED-SHIFTED, PHOTOSTABLE BENZOTRIAZOLE UV ABSORBERS AND LAMINATED ARTICLES DERIVED THEREFROM” (Ciba Specialty Chemicals Holding Inc., priority 1999, dated 2000).

Assay: Benzotriazole solubility in adhesive GELVA 263 (observed crystallization after solvent evaporation)
Conditions: in GELVA 263 polyacrylate adhesive; approximate maximum concentration, weight of total benzotriazole added to GELVA 263 as is
Description: To measure this solubility a number of structurally different benzotriazoles are added to a typical adhesive GELVA® 263 (Solutia) which is a 44.5% solution of a polyacrylate in a mixture of ethyl acetate and hexane. The polyacrylate is a copolymer of methyl methacrylate, 2-ethylhexyl methacrylate and glycidyl methacrylate.
The test benzotriazole is dissolved in 5 mL of ethyl acetate, toluene or a mixture of ethyl acetate and toluene. To the solution is added 5 g of GELVA® 263 and 2-3 mL of the resulting solution is placed into individual watch glasses. Solubility is then evaluated based upon observed crystallization once the solvent has evaporated. Observations start after several hours and then continue over a period of several weeks.
Solubilities are reported in weight of total benzotriazole added to GELVA® 263 as is.
Following the procedure of Example 3, the solubility in GELVA® 263 (Solutia) of various mixtures of benzotriazoles is determined. […]
The test compound is dissolved in 5 mL of ethyl acetate, toluene or a mixture of ethyl acetate and toluene. […] Solubility is then evaluated based upon observed crystallization once the solvent has evaporated. […]

Solubility without Crystallization (%)	Structure (SMILES)
8.0	COC(=O)C[S+]([O-])c1ccc2nn(-c3cc(C(C)(C)C)cc(C(C)(C)C)c3O)nc2c1 (centres unmarked) [J, 5-methoxycarbonylmethylsulfinyl-2-(2-hydroxy-3,5-di-tert-butylphenyl)-2H-benzotriazole]
11.3	COC(=O)CCc1cc(-n2nc3ccc(S(=O)(=O)c4ccccc4)cc3n2)c(O)c(C(C)(C)C)c1 [K, methyl 3-(5-phenylsulfonyl-2H-benzotriazol-2-yl)-5-tert-butyl-4-hydroxyhydrocinnamate]
